The text below walks through data of patent publication US20090175795A1, “CHIMERIC THERAPEUTIC AGENTS” (Amprotein Corporation, priority 2005, published 2009).

Assay [1] deals with blood glucose. The experiment in a line: everyday blood glucose level during the 7-day injection period. To be noted: 0.1 mg daily; for Glucose: one hour after injection, n = 5. In kind it is in vivo, mouse. As for the experimental part:
In the above experiments, during the 7-day period, blood glucose levels of each mouse were measured and recorded on each day one hour after injection of GLP1-Fc-leptin (0.1 mg) or IgG1 Fc fragment everyday in the morning.

Assay [2] concerns blood glucose. The experiment in a line: intraperitoneal glucose tolerance test (ip GTT) in mice. Also noted: Blood glucose (X ± SD): unit not given here. In kind it is in vivo, mouse. To be noted: for effect on blood glucose levels in ip GTT: P<0.05. As to the method:
(§1) First, intraperitoneal glucose tolerance test (ip GTT) was conducted to test GLP -Fc-leptin's action on glucose-dependent insulin secretion. Briefly, mouse blood glucose was measured using one-touch blood glucose strips. A blood sample was obtained from a mouse through tail bleeding. Then, 0.04, 0.1, or 0.2 mg of GLP1-Fc-leptin or control protein human IgG1 Fc fragment were injected ip. Immediately after the injections, 0.2 ml of saturated glucose water solution was injected ip into the mouse. One and two hours later, another blood sample was collected in the same manner for glucose measurement.

Assay [3] has as its system blood glucose. Put plainly: IP glucose tolerance test repeated at day-1 and day-2 after one injection (long-term effect). In kind it is in vivo, mouse. The conditions noted are these: for Blood glucose (X ± SD): one injection 0.2 mg, n = 5. As for the experimental part: as §1, with “measurement. […] The results are summarized in Tables 1-4 below: The above experiment was repeated with GLP1-Fc-leptin (0.2 mg) at day-1 before the glucose tolerance test. A IP glucose tolerance test was conducted twice at day-1 and day-2 respectively.” for “measurement.”

The subject of assay [4] is blood glucose. Put plainly: GTT assay in rats. In kind it is in vivo, rat. The conditions noted are these: small numbers. As to the method: (§2) Similarly GTT assays were also conducted in rats and rabbits in small numbers. All the results support the inhibition of GLP1-Fc-leptin on blood glucose level.
Assay [5] concerns blood glucose. Put plainly: GTT assay in rabbits. In kind it is in vivo, rabbit. To be noted: small numbers. As to the method:
as §2

Assay [6] can be described thus: effect on body weight, 7-day ip injection. The conditions noted are these: for Body weight (X ± SD): n = 5, in g (unit assumed). In kind it is in vivo, mouse. As to the method:
The effects of GLP1-Fc-leptin on body weight were studied. Mice were injected with 0.1 mg of GLP1-Fc-leptin or human IgG1 Fc fragment in the same manner described above daily for seven days. At days 1 and 7, the body weight of each […] was measured and recorded. […] The body weight was measured on days 1, 4, and 7. Effects of leptin on body weight were studied in the same manner described above. More specifically, mice were injected ip. with 0.1 mg/mouse of human recombinant leptin (R&D Systems, Cat# 398-LP) or human IgG Fc twice a day (9 am and 5 pm) for 7 days.

For “GLP1-Fc-leptin: fusion protein GLP-1-3xGly-IgG1 Fc-leptin (SEQ ID NO:5), expressed in CHO cells”, in the assay on blood glucose [1] (7-day period), the “everyday blood glucose levels versus IgG1 Fc fragment” value is given as “lower blood glucose levels”. Moreover, the Glucose with blood glucose [1] (day 1) was 98.0 ± 13.2 mg/dL; in the assay with blood glucose [1] (day 2) it was 119.0 ± 25.8 mg/dL; in the assay with blood glucose [1] (day 3), 91.4 ± 44.6 mg/dL; in the assay with blood glucose [1] (day 4), 116.0 ± 34.3 mg/dL; with blood glucose [1] (day 5), 95.6 ± 33.9 mg/dL; in the assay on blood glucose [1] (day 6), 102.3 ± 25.7 mg/dL. For the same substance, the Glucose in the assay on blood glucose [1] (day 7) was found to be 160.4 ± 18.6 mg/dL. Moreover, the “Blood glucose (X ± SD)” value was 275.8 ± 154.0 with blood glucose [2] (0.04 mg ip, 1 hour after IP glucose injection, n = 5); 98.0 ± 22.7 in the assay on blood glucose [2] (0.04 mg ip, 2 hour after IP glucose injection, n = 5); 98.8 ± 29.2 in the assay with blood glucose [2] (0.04 mg ip, before IP glucose injection, n = 5); 108.8 ± 44.0 with blood glucose [2] (0.1 mg ip, 1 hour after IP glucose injection, n = 4); 83.0 ± 21.6 with blood glucose [2] (0.1 mg ip, 2 hour after IP glucose injection, n = 4); 67.3 ± 32.1 in the assay on blood glucose [2] (0.1 mg ip, before IP glucose injection, n = 4). Further, the “Blood glucose (X ± SD)” value in the assay with blood glucose [2] (0.2 mg ip, 1 hour after IP glucose injection, n = 5) came to 113.0 ± 16.2; in the assay on blood glucose [2] (0.2 mg ip, 2 hour after IP glucose injection, n = 5) it was 82.0 ± 6.2; in the assay on blood glucose [2] (0.2 mg ip, before IP glucose injection, n = 5) it was 84.4 ± 20.5; with blood glucose [3] (Day-1 GTT, 1 hour after IP glucose injection), 113.0 ± 16.2; in the assay with blood glucose [3] (Day-1 GTT, 2 hour after IP glucose injection), 82.0 ± 6.2; in the assay with blood glucose [3] (Day-1 GTT, before IP glucose injection), 84.4 ± 20.5. In addition, the “Blood glucose (X ± SD)” value with blood glucose [3] (Day-2 GTT, 1 hour after IP glucose injection) came to 106.2 ± 25.7; with blood glucose [3] (Day-2 GTT, 2 hour after IP glucose injection), 95.8 ± 21.1; in the assay on blood glucose [3] (Day-2 GTT, before IP glucose injection), 92.6 ± 25.3. For the same substance, the “effect on blood glucose levels in ip GTT” value in the assay on blood glucose [2] (0.1 mg) and in the assay with blood glucose [2] (0.2 mg) was “significantly inhibited” each time. For the same substance, in the assay with blood glucose [3] (one injection of 0.2 mg), the “duration of inhibition of blood glucose level” value was “at least two”. Also, the “effect on blood glucose level in GTT” value in the assay with blood glucose [4] and in the assay with blood glucose [5] was “inhibition” each time. This substance showed a body weight lost in assay [6] (0.1 mg daily for seven days, at day 7, p<0.05) of 11.3%. Moreover, the “Body weight (X ± SD)” value was found to be 24.7 ± 1.3 in assay [6] (0.1 mg ip daily for seven days, day 1); 23.7 ± 2.2 in assay [6] (0.1 mg ip daily for seven days, day 4); 21.9 ± 1.4 in assay [6] (0.1 mg ip daily for seven days, day 7).

With “Human leptin: human recombinant leptin (R&D Systems, Cat# 398-LP)”, the “weight loss relative to GLP1-Fc-Leptin” value in assay [6] (0.1 mg/mouse ip twice a day for 7 days) is “less than half of the weight loss that GLP1-Fc-Leptin induced”. The “Body weight (X ± SD)” value in assay [6] (leptin study, 0.1 mg/mouse ip twice a day for 7 days, day 1) was found to be 20.9 ± 2.0; in assay [6] (leptin study, 0.1 mg/mouse ip twice a day for 7 days, day 4), 20.7 ± 2.3; in assay [6] (leptin study, 0.1 mg/mouse ip twice a day for 7 days, day 7), 20.1 ± 2.1. Moreover, the “weight loss when used alone” value in assay [6] (our animal model, pilot experiments, used alone) was “did not induce significant weight loss”.
